From patent US20200399262A1, “COMPOUNDS FOR INHIBITING PROTEIN DEGRADATION AND METHODS OF USE THEREOF IN THE TREATMENT OF CANCER” (PI Therapeutics Ltd, priority 2018, published 2020)
pEC50: −log10 of the molar value.

Experiments:
Assay in all cases: Cell viability panel, ATPlite 1Step
Format in all cases: cell-based
[1] = test system: A-172; conditions: Homo sapiens, Glioblastoma, 72 h exposure, read-out: Compound EC50
Procedure: (§1) Cell viability panel studies. Cells were diluted in the corresponding ATCC recommended medium and dispensed in a 384-well plate, depending on the cell line used, at a density of 200-6400 cells per well. For each used cell line, the optimal cell density was used. Compound was serially diluted and 8 concentration (0.04-32 μM) were added to the cells for 72 h exposure. At t=end, of ATPlite 1Step™ (PerkinElmer) were used to calculate cell viability. Cell lines marked with asterisk were seeded 24 h prior to treatment in 96-well plates at the density range of 5,000-40,000 cells/well, according to duplication rate, in RPMI 1640 medium containing 10% fetal bovine serum and 2 mM L-glutamine. Compounds were diluted from 10 mM DMSO stock and treatment was applied at the range of 0.04-1 μM. Following incubation at 37° C. for 48 hours with increasing concentrations of the compounds, viability was determined with CyQUANT® Direct Assay Kit (Invitrogen). Output intensities were normalized to values after treatment with DMSO alone, and EC50 values were calculated using the absorbance measurements [time zero, (Tz), growth control, (C), plus the test growth at the four drug concentration levels (Ti)] as follows: [(Ti−Tz)/(C−Tz)]×100 for concentrations for which Ti>/=Tz; [(Ti−Tz)/Tz]×100 for concentrations for which Ti−<Tz.

[2] = test system: AN3 CA; conditions: Homo sapiens, Endometrial adenocarcinoma, 72 h exposure, read-out: Compound EC50
Procedure: as §1

[3] = test system: BxPC-3; conditions: Homo sapiens, Pancreatic ductal adenocarcinoma, 72 h exposure, read-out: Compound EC50
Procedure: as §1

[4] = test system: DU 145; conditions: Homo sapiens, Prostate carcinoma, 72 h exposure, read-out: Compound EC50
Procedure: as §1

[5] = test system: DU4475; conditions: Homo sapiens, DU-4475, Breast carcinoma, 72 h exposure, read-out: Compound EC50
Procedure: as §1

[6] = test system: ES-2; conditions: Homo sapiens, Ovarian clear cell adenocarcinoma, 72 h exposure, read-out: Compound EC50
Procedure: as §1

[7] = test system: HCT 116; conditions: Homo sapiens, Colon carcinoma, 72 h exposure, read-out: Compound EC50
Procedure: as §1

[8] = test system: HT-1080; conditions: Homo sapiens, Fibrosarcoma, 72 h exposure, read-out: Compound EC50
Procedure: as §1

[9] = test system: HT; conditions: Homo sapiens, Diffuse large B-cell lymphoma, 72 h exposure, read-out: Compound EC50
Procedure: as §1

[10] = test system: Hs 766T; conditions: Hs766T, Pancreatic adenocarcinoma, 72 h exposure, read-out: Compound EC50
Procedure: as §1

[11] = test system: J82; conditions: Homo sapiens, Bladder carcinoma, 72 h exposure, read-out: Compound EC50
Procedure: as §1

[12] = test system: JAR; conditions: Gestational choriocarcinoma, 72 h exposure, read-out: Compound EC50
Procedure: as §1

[13] = test system: KATO III; conditions: Homo sapiens, Signet ring cell gastric adenocarcinoma, 72 h exposure, read-out: Compound EC50
Procedure: as §1

[14] = test system: KG-1; conditions: Homo sapiens, Acute myeloid leukemia, 72 h exposure, read-out: Compound EC50
Procedure: as §1

[15] = test system: LNCaP FGC; conditions: Homo sapiens, Prostate carcinoma, 72 h exposure, read-out: Compound EC50
Procedure: as §1

[16] = test system: MCF7; conditions: Homo sapiens, Invasive ductal carcinoma, 72 h exposure, read-out: Compound EC50
Procedure: as §1

[17] = test system: MeWo; conditions: Homo sapiens, Melanoma, 72 h exposure, read-out: Compound EC50
Procedure: as §1

[18] = test system: NCCIT; conditions: Homo sapiens, Testicular embryonal carcinoma, 72 h exposure, read-out: Compound EC50
Procedure: as §1

[19] = test system: NCI-H460; conditions: Homo sapiens, Large cell lung carcinoma, 72 h exposure, read-out: Compound EC50
Procedure: as §1

[20] = test system: OVCAR-3; conditions: Homo sapiens, High grade ovarian serous adenocarcinoma, 72 h exposure, read-out: Compound EC50
Procedure: as §1

[21] = test system: SJCRH30; conditions: Alveolar rhabdomyosarcoma, 72 h exposure, read-out: Compound EC50
Procedure: as §1

[22] = test system: SNU-C2B; conditions: Homo sapiens, Cecum adenocarcinoma, 72 h exposure, read-out: Compound EC50
Procedure: as §1

[23] = test system: SU-DHL-6; conditions: Homo sapiens, Diffuse large B-cell lymphoma, 72 h exposure, read-out: Compound EC50
Procedure: as §1

[24] = test system: SW626; conditions: Homo sapiens, Colon adenocarcinoma, 72 h exposure, read-out: Compound EC50
Procedure: as §1

[25] = test system: SW837; conditions: Homo sapiens, Rectal adenocarcinoma, 72 h exposure, read-out: Compound EC50
Procedure: as §1

[26] = test system: SW900; conditions: Homo sapiens, Squamous cell lung carcinoma, 72 h exposure, read-out: Compound EC50
Procedure: as §1

[27] = test system: SW948; conditions: Homo sapiens, Colon adenocarcinoma, 72 h exposure, read-out: Compound EC50
Procedure: as §1

[28] = test system: SW982; conditions: Homo sapiens, Biphasic synovial sarcoma, 72 h exposure, read-out: Compound EC50
Procedure: as §1

[29] = test system: TCCSUP; conditions: Homo sapiens, TCC-SUP, Bladder carcinoma, 72 h exposure, read-out: Compound EC50
Procedure: as §1

[30] = test system: U-87 MG; conditions: Homo sapiens, Glioblastoma, 72 h exposure, read-out: Compound EC50
Procedure: as §1

`CN(C)CCCS(=O)(=O)N1C/C(=C\c2ccc(C#N)cc2)C(=O)/C(=C/c2ccc(C#N)cc2)C1` [Compound AA] was tested, and the pEC50 [1] was over 6.52, the pEC50 [2] was over 6.52 and the pEC50 [3] was over 6.52. It also gave a pEC50 [4] of 6.00 to 6.52, a pEC50 [5] of 6.00 to 6.52 and a pEC50 [6] of over 6.52. It also gave a pEC50 [7] of over 6.52, a pEC50 [8] of over 6.52 and a pEC50 [9] of over 6.52. For the same molecule, the pEC50 [10] was 6.00 to 6.52, the pEC50 [11] was 6.00 to 6.52 and the pEC50 [12] was over 6.52. For the same molecule, the pEC50 [13] was 6.00 to 6.52, the pEC50 [14] was over 6.52 and the pEC50 [15] was 6.00 to 6.52. It also gave a pEC50 [16] of at most 6.00, a pEC50 [17] of 6.00 to 6.52 and a pEC50 [18] of over 6.52. For the same molecule, the pEC50 [19] was over 6.52, the pEC50 [20] was 6.00 to 6.52 and the pEC50 [21] was over 6.52. For the same molecule, the pEC50 [22] was 6.00 to 6.52, the pEC50 [23] was over 6.52 and the pEC50 [24] was over 6.52. It also gave a pEC50 [25] of 6.00 to 6.52, a pEC50 [26] of 6.00 to 6.52 and a pEC50 [27] of over 6.52. The pEC50 [28] was over 6.52, the pEC50 [29] was over 6.52 and the pEC50 [30] was over 6.52.
